Assay results from patent US8658604B2, “Template-fixed beta-hairpin peptidomimetics with protease inhibitory activity” (Polyphor Ltd, priority 2005, dated 2014).
Where a SMILES comes first, the peptide text is derived from it.

What was measured:
[1] = molecular target: Trypsin, from human pancreas (Homo sapiens, UniProt P07477); assay: Enzymatic assay, trypsin
[2] = molecular target: T1, Elastase from human neutrophils (Homo sapiens, UniProt P08246); assay: Enzymatic assay, elastase; settings: Elastase IC50
T1 sequence (P08246 30-267): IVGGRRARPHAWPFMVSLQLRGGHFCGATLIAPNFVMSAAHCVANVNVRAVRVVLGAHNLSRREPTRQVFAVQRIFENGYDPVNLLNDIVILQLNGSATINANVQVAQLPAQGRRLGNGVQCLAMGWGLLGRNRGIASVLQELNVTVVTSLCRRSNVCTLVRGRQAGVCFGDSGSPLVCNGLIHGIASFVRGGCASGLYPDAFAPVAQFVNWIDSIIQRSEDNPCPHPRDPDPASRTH

[3] = molecular target: T2, CathepsinG, from human neutrophils (Homo sapiens, UniProt P08311); assay: Enzymatic assay, cathepsin G; settings: Cathepsin G IC50
T2 sequence (P08311 21-244): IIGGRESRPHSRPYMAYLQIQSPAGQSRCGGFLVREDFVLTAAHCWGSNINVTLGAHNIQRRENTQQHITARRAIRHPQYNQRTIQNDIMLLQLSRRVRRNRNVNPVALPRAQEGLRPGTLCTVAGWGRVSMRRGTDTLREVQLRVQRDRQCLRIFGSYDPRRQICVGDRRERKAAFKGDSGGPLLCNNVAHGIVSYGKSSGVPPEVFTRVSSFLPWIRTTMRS

[4] = molecular target: Chymotrypsin, from human pancreas (Homo sapiens, UniProt P17538); assay: Enzymatic assay, chymotrypsin
Chain of Chymotrypsin, from human pancreas (P17538 19-263): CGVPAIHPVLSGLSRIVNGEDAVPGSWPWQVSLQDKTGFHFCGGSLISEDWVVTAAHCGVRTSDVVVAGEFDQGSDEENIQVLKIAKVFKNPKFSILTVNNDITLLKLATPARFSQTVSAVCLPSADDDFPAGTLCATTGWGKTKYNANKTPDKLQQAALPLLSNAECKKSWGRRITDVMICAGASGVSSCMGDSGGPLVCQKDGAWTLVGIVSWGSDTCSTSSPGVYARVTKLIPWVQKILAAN

[5] = system: Tryptase, from human lung; assay: Enzymatic assay, tryptase; settings: for IC50: read-out: Tryptase IC50

SMILES	Trypsin at 100 μM % [1] [%]	IC50 [2] [nM]	IC50 [3] [nM]	Chymotrypsin at 100 μM % [4] [%]	IC50 [4] [nM]	Tryptase At 100 μM % [5] [%]	IC50 [1] [nM]	IC50 [5] [nM]
CC[C@H](C)[C@@H]1NC(=O)[C@@H]2CCCN2C(=O)[C@@H]2CCCN2C(=O)[C@H](CC(=O)O)NC(=O)[C@H](CO)NC(=O)[C@H](CCCCN)NC(=O)[C@H]([C@@H](C)O)NC(=O)[C@@H]2CSSC[C@H](NC1=O)C(=O)N[C@@H](CO)C(=O)N1CCC[C@@H]1C(=O)N1[C@@H](c3ccccc3)CC[C@H]1C(=O)N[C@@H](Cc1ccccc1)C(=O)N2 [Ex. 48] (HELM PEPTIDE1{C.S.[dP].[O=C([C@@H]1CC[C@H](c2ccccc2)N1[*:1])[*:2]].F.C.T.K.S.D.P.P.I}$PEPTIDE1,PEPTIDE1,1:R3-6:R3|PEPTIDE1,PEPTIDE1,1:R1-13:R2$$$V2.0)	93	> 100000	83	3	–	–	–	–
CC[C@@H](C)[C@H]1NC(=O)[C@H](CO)NC(=O)[C@@H]2CSSC[C@H](NC(=O)[C@H](Cc3ccccc3)NC(=O)[C@@H]3CCCN3C1=O)C(=O)N[C@@H]([C@@H](C)O)C(=O)N[C@@H](CCCCN)C(=O)N[C@@H](CO)C(=O)N[C@@H](CC(=O)O)C(=O)N1CCC[C@H]1C(=O)N1CCC[C@H]1C(=O)N[C@@H]([C@@H](C)CC)C(=O)N2 [Ex. 50] (HELM PEPTIDE1{F.C.T.K.S.D.P.P.I.C.S.[dI].P}$PEPTIDE1,PEPTIDE1,2:R3-10:R3|PEPTIDE1,PEPTIDE1,1:R1-13:R2$$$V2.0)	94	> 100000	89	0	–	–	–	–
CCCC[C@@H]1NC(=O)[C@@H]2CCCN2C(=O)[C@@H](Cc2ccccc2)NC(=O)[C@H](Cc2ccc(O)cc2)NC(=O)[C@@H]2CSSC[C@H](NC1=O)C(=O)N[C@@H]([C@@H](C)O)C(=O)N[C@@H](C)C(=O)N[C@@H](CO)C(=O)N[C@@H]([C@@H](C)CC)C(=O)N1CCC[C@H]1C(=O)N1CCC[C@H]1C(=O)N[C@@H](CCC(N)=O)C(=O)N2 [Ex. 116] (HELM PEPTIDE1{A.S.I.P.P.Q.C.Y.[dF].P.[Nle].C.T}$PEPTIDE1,PEPTIDE1,7:R3-12:R3|PEPTIDE1,PEPTIDE1,1:R1-13:R2$$$V2.0)	0	46	–	–	39700	–	–	–
CCCC[C@@H]1NC(=O)[C@@H]2CCCN2C(=O)[C@H]2CCCN2C(=O)[C@H](c2ccccc2)NC(=O)[C@@H]2CSSC[C@H](NC1=O)C(=O)N[C@@H]([C@@H](C)O)C(=O)N[C@@H](C)C(=O)N[C@@H](CO)C(=O)N[C@@H]([C@@H](C)CC)C(=O)N1CCC[C@H]1C(=O)N1CCC[C@H]1C(=O)N[C@@H](CCC(N)=O)C(=O)N2 [Ex. 136] (HELM PEPTIDE1{[Nle].C.T.A.S.I.P.P.Q.C.[Phg].[dP].P}$PEPTIDE1,PEPTIDE1,2:R3-10:R3|PEPTIDE1,PEPTIDE1,1:R1-13:R2$$$V2.0)	–	–	–	67.9	–	0	–	–
CCCC[C@@H]1NC(=O)[C@@H]2CCCN2C(=O)[C@H]2CCCN2C(=O)[C@H](Cc2ccccc2)NC(=O)[C@@H]2CSSC[C@H](NC1=O)C(=O)N[C@@H]([C@@H](C)O)C(=O)N[C@@H](C)C(=O)N[C@@H](CO)C(=O)N[C@@H]([C@@H](C)CC)C(=O)N1CCC[C@H]1C(=O)N1CCC[C@H]1C(=O)N[C@@H](CCC(N)=O)C(=O)N2 [Ex. 137] (HELM PEPTIDE1{[Nle].C.T.A.S.I.P.P.Q.C.F.[dP].P}$PEPTIDE1,PEPTIDE1,2:R3-10:R3|PEPTIDE1,PEPTIDE1,1:R1-13:R2$$$V2.0)	–	–	–	68.7	–	5	–	–
CCCC[C@@H]1NC(=O)[C@@H]2CCCN2C(=O)[C@H]2CCCN2C(=O)[C@H](Cc2ccc(O)cc2)NC(=O)[C@@H]2CSSC[C@H](NC1=O)C(=O)N[C@@H]([C@@H](C)O)C(=O)N[C@@H](C)C(=O)N[C@@H](CO)C(=O)N[C@@H](C1CCCCC1)C(=O)N1CCC[C@H]1C(=O)N1CCC[C@H]1C(=O)N[C@@H](CCC(N)=O)C(=O)N2 [Ex. 140] (HELM PEPTIDE1{[Nle].C.T.A.S.[O=C([C@@H](N[*:1])C1CCCCC1)[*:2]].P.P.Q.C.Y.[dP].P}$PEPTIDE1,PEPTIDE1,2:R3-10:R3|PEPTIDE1,PEPTIDE1,1:R1-13:R2$$$V2.0)	–	–	–	79.6	–	4.2	–	–
CCCC[C@@H]1NC(=O)[C@H](CC(=O)O)NC(=O)[C@H]2CCCN2C(=O)[C@H](Cc2ccc(O)cc2)NC(=O)[C@@H]2CSSC[C@H](NC1=O)C(=O)N[C@@H]([C@@H](C)O)C(=O)N[C@@H](C)C(=O)N[C@@H](CO)C(=O)N[C@@H]([C@@H](C)CC)C(=O)N1CCC[C@H]1C(=O)N1CCC[C@H]1C(=O)N[C@@H](CCC(N)=O)C(=O)N2 [Ex. 168] (HELM PEPTIDE1{[Nle].C.T.A.S.I.P.P.Q.C.Y.[dP].D}$PEPTIDE1,PEPTIDE1,2:R3-10:R3|PEPTIDE1,PEPTIDE1,1:R1-13:R2$$$V2.0)	–	–	–	72.9	–	4.6	–	–
CC[C@H](C)[C@@H]1NC(=O)[C@@H]2CCCN2C(=O)[C@H]2CCCN2C(=O)[C@H](CCCCN)NC(=O)[C@@H]2CSSC[C@H](NC1=O)C(=O)N[C@@H]([C@@H](C)O)C(=O)N[C@@H](CCCCN)C(=O)N[C@@H](CO)C(=O)N[C@@H](CC(C)C)C(=O)N1CCC[C@H]1C(=O)N1CCC[C@H]1C(=O)N[C@@H](CCCNC(=N)N)C(=O)N2 [Ex. 190] (HELM PEPTIDE1{I.C.T.K.S.L.P.P.R.C.K.[dP].P}$PEPTIDE1,PEPTIDE1,2:R3-10:R3|PEPTIDE1,PEPTIDE1,1:R1-13:R2$$$V2.0)	–	–	1500	–	–	–	172	< 100
CC(C)C[C@@H]1NC(=O)[C@@H]2CCCN2C(=O)[C@H]2CCCN2C(=O)[C@H](CCCNC(=N)N)NC(=O)[C@@H]2CSSC[C@H](NC1=O)C(=O)N[C@@H]([C@@H](C)O)C(=O)N[C@@H](CCCCN)C(=O)N[C@@H](CO)C(=O)N[C@@H](CC(C)C)C(=O)N1CCC[C@H]1C(=O)N1CCC[C@H]1C(=O)N[C@@H](CCCCN)C(=O)N2 [Ex. 191] (HELM PEPTIDE1{L.C.T.K.S.L.P.P.K.C.R.[dP].P}$PEPTIDE1,PEPTIDE1,2:R3-10:R3|PEPTIDE1,PEPTIDE1,1:R1-13:R2$$$V2.0)	–	–	400	–	–	–	66	21
CCCC[C@@H]1NC(=O)[C@@H]2CCCN2C(=O)[C@H]2CCCN2C(=O)[C@H](CCCNC(=N)N)NC(=O)[C@@H]2CSSC[C@H](NC1=O)C(=O)N[C@@H]([C@@H](C)O)C(=O)N[C@@H](CCCCN)C(=O)N[C@@H](CO)C(=O)N[C@@H](CC(C)C)C(=O)N1CCC[C@H]1C(=O)N1CCC[C@H]1C(=O)N[C@@H](CCCCN)C(=O)N2 [Ex. 192] (HELM PEPTIDE1{[Nle].C.T.K.S.L.P.P.K.C.R.[dP].P}$PEPTIDE1,PEPTIDE1,2:R3-10:R3|PEPTIDE1,PEPTIDE1,1:R1-13:R2$$$V2.0)	–	–	650	–	–	–	72	16
CC(C)C[C@@H]1NC(=O)[C@H](CO)NC(=O)[C@H](CCCCN)NC(=O)[C@H]([C@@H](C)O)NC(=O)[C@@H]2CSSC[C@H](NC(=O)[C@H](CCCCN)NC(=O)[C@@H]3CCCN3C(=O)[C@@H]3CCCN3C1=O)C(=O)N[C@@H](CCCNC(=N)N)C(=O)N1CCC[C@@H]1C(=O)N1CCC[C@H]1C(=O)N[C@@H](CC1CCCCC1)C(=O)N2 [Ex. 193] (HELM PEPTIDE1{[Cha].C.T.K.S.L.P.P.K.C.R.[dP].P}$PEPTIDE1,PEPTIDE1,2:R3-10:R3|PEPTIDE1,PEPTIDE1,1:R1-13:R2$$$V2.0)	–	–	431	–	–	–	35	6
CC(C)C[C@@H]1NC(=O)[C@H](CO)NC(=O)[C@H](CCCCN)NC(=O)[C@H]([C@@H](C)O)NC(=O)[C@@H]2CSSC[C@H](NC(=O)[C@H](CCCCN)NC(=O)[C@@H]3CCCN3C(=O)[C@@H]3CCCN3C1=O)C(=O)N[C@@H](CCCNC(=N)N)C(=O)N1CCC[C@@H]1C(=O)N1CCC[C@H]1C(=O)N[C@@H](Cc1ccc(O)cc1)C(=O)N2 [Ex. 194] (HELM PEPTIDE1{Y.C.T.K.S.L.P.P.K.C.R.[dP].P}$PEPTIDE1,PEPTIDE1,2:R3-10:R3|PEPTIDE1,PEPTIDE1,1:R1-13:R2$$$V2.0)	–	–	1570	–	–	–	431	9
CC(C)C[C@@H]1NC(=O)[C@H](CO)NC(=O)[C@H](CCCCN)NC(=O)[C@H]([C@@H](C)O)NC(=O)[C@@H]2CSSC[C@H](NC(=O)[C@H](CCCCN)NC(=O)[C@@H]3CCCN3C(=O)[C@@H]3CCCN3C1=O)C(=O)N[C@@H](CCCNC(=N)N)C(=O)N1CCC[C@@H]1C(=O)N1CCC[C@H]1C(=O)N[C@@H](Cc1c[nH]c3ccccc13)C(=O)N2 [Ex. 195] (HELM PEPTIDE1{W.C.T.K.S.L.P.P.K.C.R.[dP].P}$PEPTIDE1,PEPTIDE1,2:R3-10:R3|PEPTIDE1,PEPTIDE1,1:R1-13:R2$$$V2.0)	–	–	4000	–	–	–	108	12
CC(C)C[C@@H]1NC(=O)[C@H](CO)NC(=O)[C@H](CCCCN)NC(=O)[C@H]([C@@H](C)O)NC(=O)[C@@H]2CSSC[C@H](NC(=O)[C@H](CCCCN)NC(=O)[C@@H]3CCCN3C(=O)[C@@H]3CCCN3C1=O)C(=O)N[C@@H](Cc1ccc(O)cc1)C(=O)N1CCC[C@@H]1C(=O)N1CCC[C@H]1C(=O)N[C@@H](CCCNC(=N)N)C(=O)N2 [Ex. 196] (HELM PEPTIDE1{R.C.T.K.S.L.P.P.K.C.Y.[dP].P}$PEPTIDE1,PEPTIDE1,2:R3-10:R3|PEPTIDE1,PEPTIDE1,1:R1-13:R2$$$V2.0)	–	–	2170	–	–	–	70	52
